Assay results taken from patent US4663329A, “Thienopyridinone derivatives and anti-bacterial compositions containing them” (Sanofi, priority 1984, dated 1987).
In brackets after ≈: the same amount, converted by molar mass. Like-named read-outs stand apart in the source and are kept apart here.

Assays:
Format in all cases: cell-based
[1] = tested on: Escherichia coli 54127 IP; assay: In vitro antibacterial activity, MIC, Escherichia coli 54127 IP
Method: (§1) Tests carried out in vitro in accordance with the experimental procedure described hereunder have provided evidence of the antibacterial activity in question.
(§2) For this purpose, the M.I.C. were determined i.e. the minimal inhibiting concentrations of the compound under study acting on the growth of the bacteria at 37° C.
(§3) The serial dilutions method was used utilizing a MUELLER HINTON gelose medium at pH=7.4 and a bacterial inoculum of 10^4 units forming colonies. This inoculum was applied to the gelose by means of a multiple sowing device.
(§4) A scale of concentrations ranging from 100 to 0.05 μg/ml of compound to be studied was used starting from mother solutions titrating 1000 μg/ml, all the subsequent dilutions being effected in distilled water.

Shigella sonnei R 018 = assay: In vitro antibacterial activity, MIC, Shigella sonnei R 018; settings: R018, 37° C., pH=7.4, inoculum 10^4
Method: as §1, §2, §3, §4

[2] = tested on: Proteus mirabilis ATCC 21100; assay: In vitro antibacterial activity, MIC, Proteus mirabilis ATCC 21100; settings: ATCC21100
Method: as §1, §2, §3, §4

[3] = tested on: Enterobacter hafniae RO 46; assay: In vitro antibacterial activity, MIC, Enterobacter hafniae RO 46; settings: Hafnia alvei, RO46
Method: as §1, §2, §3, §4

Proteus morganii 1510 = assay: In vitro antibacterial activity, MIC, Proteus morganii 1510; settings: Morganella morganii
Method: as §1, §2, §3, §4

[4] = tested on: Salmonella typhimurium A 222 IP; assay: In vitro antibacterial activity, MIC, Salmonella typhimurium A 222 IP; settings: Salmonella enterica
Method: as §1, §2, §3, §4

[5] = tested on: Klebsiella pneumoniae ATCC 10031; assay: In vitro antibacterial activity, MIC, Klebsiella pneumoniae ATCC 10031; settings: ATCC10031
Method: as §1, §2, §3, §4

[6] = tested on: Streptococcus faecalis 5855 IP; assay: In vitro antibacterial activity, MIC, Streptococcus faecalis 5855 IP; settings: Enterococcus faecalis, 37° C., pH=7.4, inoculum 10^4, read-out: MIC
Method: as §1, §2, §3, §4

[7] = tested on: Proteus vulgaris RL 99 bis; assay: In vitro antibacterial activity, MIC, Proteus vulgaris RL 99 bis; settings: RL99BIS; Proteus vulgaris RL 99 bis; 37° C., pH=7.4, inoculum 10^4; read-out: MIC
Method: as §1, §2, §3, §4

[8] = tested on: Klebsiella pneumoniae R 30; assay: In vitro antibacterial activity, MIC, Klebsiella pneumoniae R 30; settings: R30
Method: as §1, §2, §3, §4

[9] = tested on: Staphylococcus aureus 53154 IP; assay: In vitro antibacterial activity, MIC, Staphylococcus aureus 53154 IP
Method: as §1, §2, §3, §4

[10] = tested on: Citrobacter freundii GN 346; assay: In vitro antibacterial activity, MIC, Citrobacter freundii GN 346; settings: GN346
Method: as §1, §2, §3, §4

[11] = tested on: Pseudomonas aeruginosa 8203; assay: In vitro antibacterial activity, MIC, Pseudomonas aeruginosa 8203; settings: 37° C., pH=7.4, inoculum 10^4, read-out: MIC
Method: as §1, §2, §3, §4

[12] = tested on: Bacillus subtilis ATCC 6633; assay: In vitro antibacterial activity, MIC, Bacillus subtilis ATCC 6633; settings: ATCC6633
Method: as §1, §2, §3, §4

[13] = tested on: Salmonella typhi ATCC 6539; assay: In vitro antibacterial activity, MIC, Salmonella typhi ATCC 6539; settings: Salmonella enterica
Method: as §1, §2, §3, §4

[14] = tested on: Providencia stuartii 5158; assay: In vitro antibacterial activity, MIC, Providencia stuartii 5158
Method: as §1, §2, §3, §4

[15] = tested on: Acinetobacter calcoaceticus C 1733; assay: In vitro antibacterial activity, MIC, Acinetobacter calcoaceticus C 1733; settings: C1733, 37° C., pH=7.4, inoculum 10^4, read-out: MIC
Method: as §1, §2, §3, §4

[16] = tested on: Escherichia coli SOL RL 90; assay: In vitro antibacterial activity, MIC, Escherichia coli SOL RL 90; settings: SOLRL90
Method: as §1, §2, §3, §4

[17] = tested on: Serratia liquefaciens 376; assay: In vitro antibacterial activity, MIC, Serratia liquefaciens 376; settings: 37° C., pH=7.4, inoculum 10^4, read-out: MIC
Method: as §1, §2, §3, §4

[18] = tested on: Enterobacter cloacae P 99; assay: In vitro antibacterial activity, MIC, Enterobacter cloacae P 99; settings: Enterobacter cloacae, P99
Method: as §1, §2, §3, §4

[19] = tested on: Bordetella bronchiseptica ATCC 4617; assay: In vitro antibacterial activity, MIC, Bordetella bronchiseptica ATCC 4617; settings: ATCC4617, 37° C., pH=7.4, inoculum 10^4, read-out: MIC
Method: as §1, §2, §3, §4

[20] = Escherichia coli 54127 IP, 37° C., pH=7.4, inoculum 10^4, read-out: MIC
[21] = Proteus mirabilis ATCC 21100, 37° C., pH=7.4, inoculum 10^4, read-out: MIC
[22] = Enterobacter hafniae RO 46, 37° C., pH=7.4, inoculum 10^4, read-out: MIC
[23] = Proteus morganii 1510, 37° C., pH=7.4, inoculum 10^4, read-out: MIC
[24] = Salmonella typhimurium A 222 IP, 37° C., pH=7.4, inoculum 10^4, read-out: MIC
[25] = Klebsiella pneumoniae ATCC 10031, 37° C., pH=7.4, inoculum 10^4, read-out: MIC
[26] = Klebsiella pneumoniae R 30, 37° C., pH=7.4, inoculum 10^4, read-out: MIC
[27] = Staphylococcus aureus 53154 IP, 37° C., pH=7.4, inoculum 10^4, read-out: MIC
[28] = Citrobacter freundii GN 346, 37° C., pH=7.4, inoculum 10^4, read-out: MIC
[29] = Bacillus subtilis ATCC 6633, 37° C., pH=7.4, inoculum 10^4, read-out: MIC
[30] = Providencia stuartii 5158, 37° C., pH=7.4, inoculum 10^4, read-out: MIC
[31] = Escherichia coli SOL RL 90, 37° C., pH=7.4, inoculum 10^4, read-out: MIC

| SMILES | MIC [1, 20] [µg/mL] | MIC (Shigella sonnei R 018) [µg/mL] | MIC [2, 21] [µg/mL] | MIC [3, 22] [µg/mL] | MIC (Proteus morganii 1510; [23]) [µg/mL] | MIC [4, 24] [µg/mL] | MIC [5, 25] [µg/mL] | MIC [6] [µg/mL] | MIC [7] [µg/mL] | MIC [8, 26] [µg/mL] | MIC [9, 27] [µg/mL] | MIC [11] [µg/mL] | MIC [12, 29] [µg/mL] | MIC [13] [µg/mL] | MIC [14, 30] [µg/mL] | MIC [15] [µg/mL] | MIC [17] [µg/mL] | MIC [18] [µg/mL] | MIC [19] [µg/mL] | MIC ([10]; Citrobacter freundii) [µg/mL] | also measured |
| --- | --- | --- | --- | --- | --- | --- | --- | --- | --- | --- | --- | --- | --- | --- | --- | --- | --- | --- | --- | --- | --- |
| CCn1cc(C(=O)O)c(=O)c2cc(C=NOCCCN(C)C)sc21 [Compound E, 4,7-Dihydro-7-ethyl-2-(3-N,N-dimethylamino-propoxy)-iminomethyl-4-oxo-thieno[2,3-b]pyridine-5-carboxylic acid] | 6.25 (≈ 17.8 µM) | 25 (≈ 71.1 µM) | 3.12 (≈ 8.88 µM) | 6.25 (≈ 17.8 µM) | 25 (≈ 71.1 µM) | 25 (≈ 71.1 µM) | 3.12 (≈ 8.88 µM) | 100 (≈ 285 µM) | 12.5 (≈ 35.6 µM) | 25 (≈ 71.1 µM) | 6.25 (≈ 17.8 µM) | > 100 | 6.25 (≈ 17.8 µM) | 25 (≈ 71.1 µM) | 25 (≈ 71.1 µM) | > 100 | 50 (≈ 142 µM) | 12.5 (≈ 35.6 µM) | > 100 |  | MIC [10, 28]: 12.5 µg/mL (≈ 35.6 µM); MIC [16, 31]: 25 µg/mL (≈ 71.1 µM) |
| CCn1cc(C(=O)O)c(=O)c2cc(/C=N\O)sc21 [Compound C, 4,7-Dihydro-7-ethyl-2-hydroxyiminomethyl-4-oxo-thieno[2,3-b]pyridine-5-carboxylic acid, syn-isomer] | 12.5 (≈ 46.9 µM) | 0.8 (≈ 3 µM) | 12.5 (≈ 46.9 µM) | 12.5 (≈ 46.9 µM) | 0.4 (≈ 1.5 µM) |  | 12.5 (≈ 46.9 µM) | > 100 | 12.5 (≈ 46.9 µM) |  | 12.5 (≈ 46.9 µM) | > 100 |  | 3.12 (≈ 11.7 µM) | 12.5 (≈ 46.9 µM) | > 100 | 50 (≈ 188 µM) | 3.12 (≈ 11.7 µM) | > 100 | 3.12 (≈ 11.7 µM) | MIC ([4]; TYPHIMURIUM): 3.12 µg/mL (≈ 11.7 µM); MIC ([8]; Klebsiella pneumoniae): 6.25 µg/mL (≈ 23.5 µM); MIC ([12]; Bacillus subtilis): 6.25 µg/mL (≈ 23.5 µM); MIC ([16]; Escherichia coli): 3.12 µg/mL (≈ 11.7 µM) |
| CCn1cc(C(=O)O)c(=O)c2cc(/C=N/O)sc21 [Compound B, 4,7-Dihydro-7-ethyl-2-hydroxyiminomethyl-4-oxo-thieno[2,3-b]pyridine-5-carboxylic acid, anti-isomer] |  | 0.8 (≈ 3 µM) |  |  | 0.4 (≈ 1.5 µM) |  |  | > 100 | 0.8 (≈ 3 µM) |  | 12.5 (≈ 46.9 µM) | 100 (≈ 376 µM) |  | 6.25 (≈ 23.5 µM) |  | > 100 | 50 (≈ 188 µM) | 6.25 (≈ 23.5 µM) | > 100 | 3.12 (≈ 11.7 µM) | MIC ([1]; Escherichia coli, 54127IP): 3.12 µg/mL (≈ 11.7 µM); MIC ([2]; Proteus mirabilis): 1.56 µg/mL (≈ 5.86 µM); MIC [3]: 3.12 µg/mL (≈ 11.7 µM); MIC ([4]; TYPHIMURIUM): 3.12 µg/mL (≈ 11.7 µM); MIC ([5]; Klebsiella pneumoniae): 1.56 µg/mL (≈ 5.86 µM); MIC ([8]; Klebsiella pneumoniae): 6.25 µg/mL (≈ 23.5 µM); MIC ([12]; Bacillus subtilis): 6.25 µg/mL (≈ 23.5 µM); MIC ([14]; Providencia stuartii, 5158): 6.25 µg/mL (≈ 23.5 µM); MIC ([16]; Escherichia coli): 3.12 µg/mL (≈ 11.7 µM) |
| CCn1cc(C(=O)O)c(=O)c2cc(C=NOC(C)(C)C)sc21 [Compound I, 4,7-Dihydro-7-ethyl-4-oxo-2-tert-butoxyiminomethyl-thieno[2,3-b]pyridine-5-carboxylic acid] | > 25 | > 50 | > 25 | > 25 | > 25 | > 50 | 3.12 (≈ 9.68 µM) | > 100 | > 50 | > 25 | > 50 | > 25 | 1.56 (≈ 4.84 µM) | > 25 | > 50 | > 25 | > 25 | > 25 | > 25 |  | MIC [10, 28]: > 25 µg/mL; MIC [16, 31]: > 50 µg/mL |
| CCn1cc(C(=O)O)c(=O)c2cc(C=Nc3ccc(OC)cc3)sc21 [Compound G, 4,7-Dihydro-7-ethyl-2-N-(4-methoxy-phenyl)-iminomethyl-4-oxo-thieno[2,3-b]pyridine-5-carboxylic acid] | 1.56 (≈ 4.38 µM) | 6.25 (≈ 17.5 µM) |  | 1.56 (≈ 4.38 µM) | 0.78 (≈ 2.19 µM) | 3.12 (≈ 8.75 µM) | 12.5 (≈ 35.1 µM) | > 100 | 1.56 (≈ 4.38 µM) | 12.5 (≈ 35.1 µM) | > 100 | > 100 |  | 6.25 (≈ 17.5 µM) | 12.5 (≈ 35.1 µM) | > 100 | 100 (≈ 281 µM) | 6.25 (≈ 17.5 µM) | > 100 | 6.25 (≈ 17.5 µM) | MIC ([2]; Proteus mirabilis): 6.25 µg/mL (≈ 17.5 µM); MIC ([12]; Bacillus subtilis): 6.25 µg/mL (≈ 17.5 µM); MIC [16, 31]: 3.12 µg/mL (≈ 8.75 µM) |
| CCn1cc(C(=O)O)c(=O)c2cc(C=NOC)sc21 [Compound D, 4,7-Dihydro-7-ethyl-2-methoxyiminomethyl-4-oxo-thieno[2,3-b]pyridine-5-carboxylic acid] | 0.78 (≈ 2.78 µM) | 1.56 (≈ 5.57 µM) | 0.78 (≈ 2.78 µM) |  |  |  | 0.2 (≈ 0.714 µM) | > 100 | 0.78 (≈ 2.78 µM) |  |  | > 100 | 0.78 (≈ 2.78 µM) | 3.12 (≈ 11.1 µM) |  | > 100 | 50 (≈ 178 µM) | 1.56 (≈ 5.57 µM) | 12.5 (≈ 44.6 µM) | 3.12 (≈ 11.1 µM) | MIC [3]: 1.56 µg/mL (≈ 5.57 µM); MIC (Proteus morganii 1510; 1510): 3.12 µg/mL (≈ 11.1 µM); MIC ([4]; TYPHIMURIUM): 3.12 µg/mL (≈ 11.1 µM); MIC ([8]; Klebsiella pneumoniae): 3.12 µg/mL (≈ 11.1 µM); MIC ([9]; Staphylococcus aureus, 53154IP): 1.56 µg/mL (≈ 5.57 µM); MIC ([14]; Providencia stuartii, 5158): 3.12 µg/mL (≈ 11.1 µM); MIC ([16]; Escherichia coli): 3.12 µg/mL (≈ 11.1 µM) |
